Data reported in patent US20220155322A1, “USE OF NATRIURETIC PEPTIDES TO ASSESS AND TREAT ACUTE KIDNEY INJURY” (Mayo Foundation for Medical Education and Research, priority 2019, published 2022).

Columns and labels:
Assay type in all cases: cell-based
[1] = test system: human primary renal proximal tubular epithelial cells (HRPTC); experiment: Oil immersion induced hypoxia/reoxygenation (H/R) apoptosis, Caspase 3/7 IncuCyte live imaging
Procedure: Oil Immersion Induced Hypoxia/Reoxygenation in vitro: HRPTC (ScienCell Research Laboratories; Carlsbad, Calif.) were seeded in 96-well plates and cultured for 1 day until 70-80% confluence. Passages 3-5 were used for experiments. Caspase 3/7 green apoptosis assay agent (Essen BioScience; Ann Arbor, Mich.) was added to the culture medium for detection of apoptosis. Plates were then transferred to a time-lapsed, live imaging system IncuCyte (Essen BioScience) for apoptosis monitoring for a total of 24 hours. H/R in cells was mimicked with mineral oil (Sigma, St Louis, Mo.) immersion (Meldrum et al., J Surg Res, 99:288-293, 2001). Cells were immersed in oil for 2 hours, washed twice, and placed in fresh medium containing vehicle (H/R group) or drugs. ANP, BNP, and CRRL269 were used at concentrations of 10^−8, 10^−7, or 10^−6 M. PKG (an important cGMP binding protein) activating analogue 8-pCPT-cGMP (Sigma; St. Louis, Mo.), which is specific for PKG and has low affinity for phosphodiesterases, was used at concentrations of 10^−6, 10^−5, or 10^−4 M. Cells were treated with 10^−6-, 5×10^−6-, or 1.5×10^−5 M PKG inhibitor KT-5823 (Abcam; Cambridge, Mass.) for 30 minutes before 10^−6 M CRRL269 was added. Cells without H/R stimulation were labeled as the negative control (Neg Ctrl) group. Apoptosis signals (e.g., apoptosis object counts) were analyzed with software provided by IncuCyte.

[2] = test system: human primary aortic vascular smooth muscle cells (HASMC); experiment: Intracellular calcium under ANGII stimulation (Fura-2); settings: pretreatment at 10^−9 or 10^−7 M for 5 minutes, ANGII 10^−8 or 10^−7 M
Procedure: Measurements of Intracellular Calcium in Vascular Smooth Muscle Cells: HASMC (ScienCell Research Laboratories; Carlsbad, Calif.) were cultured and maintained as instructed by the manufacturer. Cells at passage 4 or 5 were used for experiments. Calcium imaging was performed as described elsewhere (Chai et al., Cardiovasc Res, 100:151-159, 2013). Briefly, cells were seeded on a 25 mm round cover glass (Fisher Scientific; Pittsburgh, Pa.) at a density of 5×10^4 cells per slide. The slides had been pretreated with 0.5 N NaOH for 8 hours, rinsed with water, and sterilized before use. After overnight culturing, the slides with cells were assembled in a MS-02 Chamber (ALA Scientific Instrument; Farmingdale, N.Y.) and loaded with 3 μM fura-2 AM (Invitrogen; Carlsbad, Calif.) for 30 minutes in a 37° C. incubator. The chamber was then placed on the stage of an inverted Olympus IX71 microscope (Olympus America Inc.; Waltham, Mass.). The cells were maintained in 1 mL HASMC medium and treated with or without ANP, BNP, or CRRL269 at concentration of 10^−9 or 10^−7 M for 5 minutes before perfused with 5 mL medium containing ANGII (10^−8 or 10^−7 M). Intracellular Ca2^+ fluorescence signals were measured as a ratio of fluorescence intensities at 510 nm from excitations of 340/380 nm, using a Hamamatsu ORCA-R2 CCD camera with a Sutter LB-LS/17 light source. Baseline fluorescence was recorded after 5 minutes of treatment, and fluorescence images were acquired continuously during the ANGII perfusion. Background fluorescence was subtracted and the calcium signal (F) was normalized to baseline fluorescence (FO) and expressed as a ratio (F/FO) using MetaFluor software (Olympus America Inc.).

[3] = test system: human renal fibroblasts (HRF); experiment: Human renal fibroblast proliferation by cell counting; settings: CNP at 10^−7 M every 24 hours, cell count at 72 hours
Procedure: Human Renal Fibroblasts Proliferation by Cell Counting: Human renal fibroblasts (HRF, Cell Biologics; Chicago, Ill.) were counted and seeded into 48-well plates with complete medium, and then incubated at 37° C., 5% CO2 overnight. The culture medium was replaced with fresh medium containing PBS or CNP at concentrations of 10^−8 or 10^−7 M, and cells were cultured for 72 hours. Fresh CNP was added at 24 and 48 hours. At 72 hours, HRF were trypsinized, stained with 0.2% trypan blue, and counted using a Cedex XS Analyzer (Roche; Indianapolis, Ind.).

Nc1nc2c(nc(Sc3ccc(Cl)cc3)n2C2O[C@@H]3COP(=O)(O)O[C@H]3[C@H]2O)c(=O)[nH]1 (stereo in doubt) [8-pCPT-cGMP, reference compound]
apoptosis inhibition in HRPTC after H/R ([1]; 8-pCPT-cGMP at 10^−6 and 10^−5 M): mimicked the apoptosis inhibition

CC[C@H](C)[C@@H]1NC(=O)[C@H](CCCNC(=N)N)NC(=O)[C@H](CC(=O)O)NC(=O)[C@H](CCSC)NC(=O)[C@H](CCCNC(=N)N)NC(=O)CNC(=O)CNC(=O)[C@H](Cc2ccccc2)NC(=O)[C@@H](NC(=O)[C@H](CO)NC(=O)[C@H](CO)NC(=O)[C@H](CCCNC(=N)N)NC(=O)[C@H](CCCNC(=N)N)NC(=O)[C@H](CC(C)C)NC(=O)[C@@H](N)CO)CSSC[C@@H](C(=O)N[C@@H](CC(N)=O)C(=O)N[C@@H](CO)C(=O)N[C@@H](Cc2ccccc2)C(=O)N[C@@H](CCCNC(=N)N)C(=O)N[C@@H](Cc2ccc(O)cc2)C(=O)O)NC(=O)CNC(=O)[C@H](CC(C)C)NC(=O)CNC(=O)[C@H](CO)NC(=O)[C@H](CCC(N)=O)NC(=O)[C@H](C)NC(=O)CNC1=O [ANP, atrial natriuretic peptide, reference compound]
Ca2^+ enhancement by ANGII in HASMC [2]: suppressed

COC(=O)[C@@]1(OC)C[C@H]2O[C@]1(C)n1c3ccccc3c3c4c(c5c6ccccc6n2c5c31)C(=O)N(C)C4 [KT-5823, reference compound]
effect on antiapoptotic effects induced by CRRL269 ([1]; HRPTC, H/R, KT-5823 30 minutes before 10^−6 M CRRL269): abrogated

B-type natriuretic peptide [BNP, reference compound]
Ca2^+ enhancement by ANGII in HASMC [2]: suppressed

C-type natriuretic peptide (GLSKGCFGLKLDRIGSMSGLGC; listed as Homo sapiens) [CNP]
human renal fibroblast (HRF) proliferation [3]: suppressed
